Among the test systems are NCI-H226 lung; HOP-92 NSCLC; MALME-3M melanoma; TK-10 renal; K-562 leukemia; U251 CNS; OVCAR-8 ovarian; UO-31 renal; SNB-75 CNS; LOX IMVI melanoma; HCT-116 colon; SN12C renal; SNB-19 CNS; NCI-H460 lung; RXF 393 renal; HL-60(TB) leukemia; SF-268 CNS.
Common to all, as to assay: NCI-60 cell line screen, 48 h

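Cells were grown in 96-well plates and exposed to each compound for 48 hours at five concentrations; endpoints were interpolated linearly between bracketing concentrations, or set to the highest concentration if not reached. TGI denotes the concentration required for complete inhibition of growth.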 Some results are limits rather than exact numbers.

Regarding `CN(C)/C=N\c1nncc2[nH]cnc12`, the TGI in the assay on NCI-H226 lung, with HOP-92 NSCLC, in the assay with MALME-3M melanoma, with TK-10 renal, with K-562 leukemia and in the assay on U251 CNS was more than 100 µM in each case. In addition, the TGI in the assay with OVCAR-8 ovarian, in the assay with UO-31 renal, in the assay with SNB-75 CNS, with LOX IMVI melanoma, in the assay with HCT-116 colon and with SN12C renal was more than 100 µM each time.
For `CCOC(=O)c1cnc2c(ccc3[nH]cccc32)c1=O`, the TGI in the assay with MALME-3M melanoma, with TK-10 renal, with K-562 leukemia, with SNB-19 CNS, in the assay on U251 CNS and in the assay with OVCAR-8 ovarian was more than 100 µM throughout. The TGI in the assay with NCI-H460 lung, with UO-31 renal, in the assay on RXF 393 renal, with SNB-75 CNS, in the assay with LOX IMVI melanoma and with HL-60(TB) leukemia was more than 100 µM in each case. For the same compound, the TGI with HCT-116 colon, in the assay on SF-268 CNS and with SN12C renal was more than 100 µM each time.
Take `Cc1ccc(NC(=O)CSc2nnc(Cc3ccccc3)o2)cc1`: the TGI with NCI-H226 lung, with MALME-3M melanoma, in the assay with TK-10 renal, with K-562 leukemia, in the assay on SNB-19 CNS and in the assay on U251 CNS was more than 100 µM throughout. Moreover, the TGI with OVCAR-8 ovarian, in the assay on NCI-H460 lung, in the assay on UO-31 renal, with RXF 393 renal, in the assay with SNB-75 CNS and in the assay on LOX IMVI melanoma was more than 100 µM throughout. Moreover, the TGI in the assay with HCT-116 colon, with SF-268 CNS and in the assay on SN12C renal was more than 100 µM throughout.
As for `C#CCNC(=O)NCCCCC(NC(C)=O)C(=O)NCc1ccccc1` (stereo not given), the TGI in the assay with NCI-H226 lung, with HOP-92 NSCLC, with MALME-3M melanoma, in the assay with TK-10 renal, in the assay on K-562 leukemia and in the assay on SNB-19 CNS was more than 100 µM each time. Also, the TGI with U251 CNS, in the assay with OVCAR-8 ovarian, in the assay on NCI-H460 lung, in the assay on UO-31 renal, in the assay with RXF 393 renal and with SNB-75 CNS was more than 100 µM throughout. Moreover, the TGI with LOX IMVI melanoma, in the assay on HCT-116 colon, in the assay on SF-268 CNS and in the assay with SN12C renal was more than 100 µM each time.
Take `CC/C(=N/O)c1ccc2[nH]c3c(C)cc([N+](=O)[O-])c(C)c3c2c1`: the TGI with NCI-H226 lung, in the assay on MALME-3M melanoma, in the assay with TK-10 renal, in the assay with K-562 leukemia, in the assay on SNB-19 CNS and in the assay on OVCAR-8 ovarian was more than 100 µM throughout. Further, the TGI with NCI-H460 lung, in the assay on UO-31 renal, in the assay on SNB-75 CNS, with LOX IMVI melanoma, with HL-60(TB) leukemia and in the assay with HCT-116 colon was more than 100 µM each time. Moreover, the TGI with SF-268 CNS and with SN12C renal was more than 100 µM throughout.
`COC(=O)n1c(C)c(C=O)c2ccc(OC)cc21`: the TGI in the assay with MALME-3M melanoma is more than 100 µM; in the assay with TK-10 renal, 67.6 µM; in the assay with K-562 leukemia, more than 100 µM; in the assay on SNB-19 CNS, more than 100 µM; with OVCAR-8 ovarian, more than 100 µM; with NCI-H460 lung it was more than 100 µM. In addition, the TGI with UO-31 renal is more than 100 µM; in the assay on RXF 393 renal, more than 100 µM; in the assay on SNB-75 CNS it was more than 100 µM; with LOX IMVI melanoma, 84.5 µM; in the assay on HL-60(TB) leukemia, more than 100 µM; in the assay on HCT-116 colon, more than 100 µM. This compound gave a TGI with SN12C renal of more than 100 µM.
As for `Cc1nc(-n2nc(-c3ccccc3)cc2-c2ccccc2)sc1C(=O)/C=C/c1ccc(Cl)c(Cl)c1`, the TGI in the assay on NCI-H226 lung is 87.6 µM; in the assay on MALME-3M melanoma, more than 100 µM; in the assay with TK-10 renal it was more than 100 µM; in the assay with K-562 leukemia, 63.7 µM; with SNB-19 CNS, 42.1 µM; in the assay on U251 CNS it was 23.8 µM. The TGI in the assay on OVCAR-8 ovarian is 31.3 µM; with NCI-H460 lung, more than 100 µM; with UO-31 renal, 23.9 µM; with RXF 393 renal, more than 100 µM; in the assay with LOX IMVI melanoma it was 27.5 µM; with HL-60(TB) leukemia it was 36.7 µM. The TGI is more than 100 µM with HCT-116 colon, more than 100 µM in the assay on SF-268 CNS and 44.3 µM in the assay on SN12C renal.
As to `CCN(CC)CCC1(C2CCCCC2)CCC(=O)NC1=O` (stereo not given), the TGI in the assay on NCI-H226 lung, in the assay on MALME-3M melanoma, with TK-10 renal, in the assay with K-562 leukemia, in the assay with SNB-19 CNS and in the assay with U251 CNS was more than 100 µM in each case. For the same compound, the TGI with OVCAR-8 ovarian, with NCI-H460 lung, with UO-31 renal, in the assay with RXF 393 renal, in the assay with SNB-75 CNS and in the assay with LOX IMVI melanoma was more than 100 µM in each case. For the same compound, the TGI with HCT-116 colon, in the assay on SF-268 CNS and in the assay on SN12C renal was more than 100 µM each time.

The values above are taken from PubChem BioAssay (NCI).
